Experimental data from ChEMBL document CHEMBL3813672, “Discovery of anti-cancer activity for benzo[1,2,4]triazin-7-ones: Very strong correlation to pleurotin and thioredoxin reductase inhibition” (Bioorg Med Chem, 2016).

Assays:
[1] = Cytotoxicity against human GM00637 cells assessed as reduction in cell viability after 72 hrs by MTT assay; assay type: cell-based; details: GM00637, 72 h
[2] = Cytotoxicity against human DU145 cells assessed as reduction in cell viability after 72 hrs by MTT assay; assay type: functional, cell-based; details: DU-145, 72 h
[3] = test system: MCF7; assay: Cytotoxicity against human MCF7 cells assessed as reduction in cell viability after 72 hrs by MTT assay; assay type: functional, cell-based; details: MCF7, 72 h
[4] = Inhibition of recombinant human TRX1/human placental thioredoxin reductase using DTNB as substrate in presence of NADPH by spectrophotometric method
[5] = target: Thioredoxin reductase (Homo sapiens, UniProt Q16881+Q9NNW7+Q86VQ6); assay: Irreversible inhibition of thioredoxin reductase (unknown origin); assay type: protein assay

SMILES	IC50 [1] [nM]	IC50 [2] [nM]	IC50 [3] [nM]	IC50 [4] [nM]	Ki [5] [nM]
C[C@@H]1CO[C@@H]2C3=C(C(=O)C=CC3=O)[C@H]3OC(=O)[C@@H]4CC[C@H]5C1CC[C@@]25[C@@H]34	510	430	280	170	280
CNc1cc2nc(-c3ccccc3)nn(-c3ccccc3)c-2cc1=O	930	980	690	–	–
O=c1cc2n(-c3ccccc3)nc(-c3ccccc3)nc-2cc1N1CCCCC1	1190	610	1980	–	–
COc1cc2nc(-c3ccccc3)nn(-c3ccccc3)c-2cc1=O	> 5000	> 5000	> 5000	–	–
O=c1cc2n(-c3ccccc3)nc(-c3ccccc3)nc-2cc1N1CCSCC1	1630	1220	970	–	–
O=c1cc2n(-c3ccccc3)nc(-c3ccccc3)nc-2cc1N1CCCC1	1790	2460	360	–	–
CCNc1cc2nc(-c3ccccc3)nn(-c3ccccc3)c-2cc1=O	240	220	1620	–	–
O=c1cc2n(-c3ccccc3)nc(-c3ccccc3)nc-2cc1N1CCOCC1	2290	3210	2370	–	–
CCOc1cc2nc(-c3ccccc3)nn(-c3ccccc3)c-2cc1=O	> 5000	> 5000	> 5000	–	–
CC(=O)Nc1cc2nc(-c3ccccc3)nn(-c3ccccc3)c-2cc1=O	> 5000	> 5000	> 5000	–	–
CCN(CC)c1cc2nc(-c3ccccc3)nn(-c3ccccc3)c-2cc1=O	2730	3110	> 5000	–	–
Nc1cc2nc(-c3ccccc3)nn(-c3ccccc3)c-2cc1=O	2040	1830	950	–	–
